According to patent US12083196B2, “Personal cleansing compositions with surfactants for increased foam performance” (ECOLAB USA INC., priority 2020, dated 2024):

Experiment: SITA Foam Analyzer foam creation
Format: physicochemical
From the text: The reagents used below include: • Alpha-Step® PC-48 is a C10-16 sodium methyl 2-sulfolaurate and disodium 2-sulfolaurate available from Stepan; • Stepan-Mild® L3 is a predominantly C12 reaction product of lauryl alcohol and lactic acid available from Stepan; • SLES is sodium laureth sulfate; • Cola® Teric is an amphoteric sultaine available from Colonial Chemical, Inc.; • Glucopon® […] is an alkyl polyglycoside available from BASF Corporation; • Suga® Nate is a sodium laurylglucosides hydrooxypropylsulfonate available from Colonial Chemicals, Inc; • Lathanol® LAL is a sodium lauryl sulfoacetate available from Stepan. All experiments ran through the SITA Foam Analyzer were as follows: Equipment: • 1) Foaming Apparatus • 2) SITA Software Reagents: • 1) 250 mL of each solution • 2) DI water Preparation: Equipment is prepared by turning the water bath on with ample time to warm up before running tests. Adjust water bath to desired temperature. Quality Assurance: Run a positive and negative control for every experiment. Ensure equipment is clean and free from any residual surfactant chemistry beforehand. In each experiment set, proper differentiation between chemistries can be seen if at least one of the tested chemistries has an “S” curve that depicts a change in the initial foam building and the lathering step. Experimental Procedure: • 1) Prepare water bath • 2) Open the “SITA-foam” software on the computer. […] Foam Generation • i. Series Count (cycles): number of measurement replicates (3-triplicate) • ii. Fill With: Volume of sample liquid (250 mL for each test) • iii. Stir Count: Number of stirrings for each test (70). This is also the number of measurements for each cycle. • iv. Stir Time: Stirring duration of sample (10 sec) • v. Revolution: RPM o the stirrer (900 RMP) • b. Cleansing • i. Click the shower icon to activate the automatic cleansing and rinsing function. The vessel will be cleaned automatically after each cycle of measurements. • ii. Normal cleansing will rinse out the vessel many times. Small cleansing indicates a faster cleansing process. All above parameters can be saved • 5) After setting the parameters, click on “Start Measurement” which is the green “Play” button to proceed with the experiment • 6) After each cycle of experiments automatic cleansing and rinsing is done in preparation for the next cycle of measurements as long as the instrument is connected to tap water or a cleansing liquid reservoir • 7) Each click on the green “Start Measurement” icon opens a new window. The current sample measurement results are all in the same project folder. To rename sample measurement files, right click on the open sample window, and click “save” to rename your sample file • 8) If an error occurs at any point with your sample, the measurement reading can be stopped by clicking the red square “Stop icon” or by pressing the large red button on the machine • 9) Organize the graph generated with the icons in the fourth section of the tool bar: create new plot, add/remove data from plot, change axis properties, and view properties. Click on the “Create new plot” icon to view the plot after the experiment is done or if it is still running. Right click to rename the plot, insert or remove the plot and display the foam buildup, foam decay, or both Establishing initial foaming of the single surfactants is important to establish baselines for comparison for the combinations of various surfactants. To establish the foaming properties of single surfactants, a high amount of each surfactant was analyzed in the SITA Foam Analyzer as described above. The final concentration of each surfactant in solution was 1%. The surfactants tested were sodium lauryl sulfate (SLES), a betaine, Cola® Teric CBS, Glucopon® […], Lathanol® LAL, and Suga® Nate 160NC. […] The compositions were tested for foaming using the SITA Foam Analyzer as described above. […]

For sodium laureth sulfate [SLES], the “ability to reach saturation of foam (in words)” value (SLES 0.2 wt. %, second surfactant 0.005 wt. %, FIG. 3) was “unable to reach saturation”, the foam height (cycle 0, SLES 0.2 wt. %, second surfactant 0.005 wt. %) was 0 mL and the foam height (cycle 1, SLES 0.2 wt. %, second surfactant 0.005 wt. %) was 147.3 mL. It also gave a foam height (cycle 2, SLES 0.2 wt. %, second surfactant 0.005 wt. %) of 161 mL, a foam height (cycle 3, SLES 0.2 wt. %, second surfactant 0.005 wt. %) of 168.3 mL and a foam height (cycle 4, SLES 0.2 wt. %, second surfactant 0.005 wt. %) of 172.67 mL. It also gave a foam height (cycle 5, SLES 0.2 wt. %, second surfactant 0.005 wt. %) of 174 mL, a foam height (cycle 6, SLES 0.2 wt. %, second surfactant 0.005 wt. %) of 177 mL and a foam height (cycle 7, SLES 0.2 wt. %, second surfactant 0.005 wt. %) of 185.67 mL. The foam height (cycle 8, SLES 0.2 wt. %, second surfactant 0.005 wt. %) was 188.3 mL, the foam height (cycle 9, SLES 0.2 wt. %, second surfactant 0.005 wt. %) was 193.67 mL and the foam height (cycle 10, SLES 0.2 wt. %, second surfactant 0.005 wt. %) was 200 mL. It also gave a foam height (cycle 11, SLES 0.2 wt. %, second surfactant 0.005 wt. %) of 202.3 mL, a foam height (cycle 12, SLES 0.2 wt. %, second surfactant 0.005 wt. %) of 204.67 mL and a foam height (cycle 13, SLES 0.2 wt. %, second surfactant 0.005 wt. %) of 210 mL. The foam height (cycle 14, SLES 0.2 wt. %, second surfactant 0.005 wt. %) was 213 mL, the foam height (cycle 15, SLES 0.2 wt. %, second surfactant 0.005 wt. %) was 217 mL and the foam height (cycle 16, SLES 0.2 wt. %, second surfactant 0.005 wt. %) was 219.3 mL. The foam height (cycle 17, SLES 0.2 wt. %, second surfactant 0.005 wt. %) was 221.3 mL, the foam height (cycle 18, SLES 0.2 wt. %, second surfactant 0.005 wt. %) was 222.67 mL and the foam height (cycle 19, SLES 0.2 wt. %, second surfactant 0.005 wt. %) was 224.3 mL. It also gave a foam height (cycle 20, SLES 0.2 wt. %, second surfactant 0.005 wt. %) of 227.67 mL, a foam height (cycle 21, SLES 0.2 wt. %, second surfactant 0.005 wt. %) of 228.3 mL and a foam height (cycle 22, SLES 0.2 wt. %, second surfactant 0.005 wt. %) of 231 mL. For the same substance, the foam height (cycle 23, SLES 0.2 wt. %, second surfactant 0.005 wt. %) was 232.67 mL, the foam height (cycle 24, SLES 0.2 wt. %, second surfactant 0.005 wt. %) was 234.3 mL and the foam height (cycle 25, SLES 0.2 wt. %, second surfactant 0.005 wt. %) was 235.3 mL. For the same substance, the foam height (cycle 26, SLES 0.2 wt. %, second surfactant 0.005 wt. %) was 237 mL, the foam height (cycle 27, SLES 0.2 wt. %, second surfactant 0.005 wt. %) was 237.67 mL and the foam height (cycle 28, SLES 0.2 wt. %, second surfactant 0.005 wt. %) was 239 mL. It also gave a foam height (cycle 29, SLES 0.2 wt. %, second surfactant 0.005 wt. %) of 239.67 mL, a foam height (cycle 30, SLES 0.2 wt. %, second surfactant 0.005 wt. %) of 240 mL and a foam height (cycle 31, SLES 0.2 wt. %, second surfactant 0.005 wt. %) of 240.67 mL. For the same substance, the foam height (cycle 32, SLES 0.2 wt. %, second surfactant 0.005 wt. %) was 241.3 mL, the foam height (cycle 33, SLES 0.2 wt. %, second surfactant 0.005 wt. %) was 242.3 mL and the foam height (cycle 34, SLES 0.2 wt. %, second surfactant 0.005 wt. %) was 243 mL. It also gave a foam height (cycle 35, SLES 0.2 wt. %, second surfactant 0.005 wt. %) of 243 mL, a foam height (cycle 36, SLES 0.2 wt. %, second surfactant 0.005 wt. %) of 243.67 mL and a foam height (cycle 37, SLES 0.2 wt. %, second surfactant 0.005 wt. %) of 244 mL. The foam height (cycle 38, SLES 0.2 wt. %, second surfactant 0.005 wt. %) was 245.3 mL, the foam height (cycle 39, SLES 0.2 wt. %, second surfactant 0.005 wt. %) was 245 mL and the foam height (cycle 40, SLES 0.2 wt. %, second surfactant 0.005 wt. %) was 245 mL. It also gave a foam height (cycle 41, SLES 0.2 wt. %, second surfactant 0.005 wt. %) of 245.67 mL, a foam height (cycle 42, SLES 0.2 wt. %, second surfactant 0.005 wt. %) of 246 mL and a foam height (cycle 43, SLES 0.2 wt. %, second surfactant 0.005 wt. %) of 246 mL. The foam height (cycle 44, SLES 0.2 wt. %, second surfactant 0.005 wt. %) was 246.67 mL, the foam height (cycle 45, SLES 0.2 wt. %, second surfactant 0.005 wt. %) was 246.67 mL and the foam height (cycle 46, SLES 0.2 wt. %, second surfactant 0.005 wt. %) was 246.67 mL. It also gave a foam height (cycle 47, SLES 0.2 wt. %, second surfactant 0.005 wt. %) of 247 mL, a foam height (cycle 48, SLES 0.2 wt. %, second surfactant 0.005 wt. %) of 247.67 mL and a foam height (cycle 49, SLES 0.2 wt. %, second surfactant 0.005 wt. %) of 247.67 mL. For the same substance, the foam height (cycle 50, SLES 0.2 wt. %, second surfactant 0.005 wt. %) was 248 mL, the foam height (cycle 51, SLES 0.2 wt. %, second surfactant 0.005 wt. %) was 248.67 mL and the foam height (cycle 52, SLES 0.2 wt. %, second surfactant 0.005 wt. %) was 248.67 mL. For the same substance, the foam height (cycle 53, SLES 0.2 wt. %, second surfactant 0.005 wt. %) was 248.67 mL, the foam height (cycle 54, SLES 0.2 wt. %, second surfactant 0.005 wt. %) was 250 mL and the foam height (cycle 55, SLES 0.2 wt. %, second surfactant 0.005 wt. %) was 250.3 mL. It also gave a foam height (cycle 56, SLES 0.2 wt. %, second surfactant 0.005 wt. %) of 251.3 mL, a foam height (cycle 57, SLES 0.2 wt. %, second surfactant 0.005 wt. %) of 250.3 mL and a foam height (cycle 58, SLES 0.2 wt. %, second surfactant 0.005 wt. %) of 250 mL. It also gave a foam height (cycle 59, SLES 0.2 wt. %, second surfactant 0.005 wt. %) of 251 mL, a foam height (cycle 60, SLES 0.2 wt. %, second surfactant 0.005 wt. %) of 251.3 mL and a foam height (cycle 61, SLES 0.2 wt. %, second surfactant 0.005 wt. %) of 251.67 mL. It also gave a foam height (cycle 62, SLES 0.2 wt. %, second surfactant 0.005 wt. %) of 252.67 mL, a foam height (cycle 63, SLES 0.2 wt. %, second surfactant 0.005 wt. %) of 252 mL and a foam height (cycle 64, SLES 0.2 wt. %, second surfactant 0.005 wt. %) of 253 mL. It also gave a foam height (cycle 65, SLES 0.2 wt. %, second surfactant 0.005 wt. %) of 253.67 mL, a foam height (cycle 66, SLES 0.2 wt. %, second surfactant 0.005 wt. %) of 253.67 mL and a foam height (cycle 67, SLES 0.2 wt. %, second surfactant 0.005 wt. %) of 253.67 mL. The foam height (cycle 68, SLES 0.2 wt. %, second surfactant 0.005 wt. %) was 253 mL, the foam height (cycle 69, SLES 0.2 wt. %, second surfactant 0.005 wt. %) was 253 mL and the foam height (cycle 70, SLES 0.2 wt. %, second surfactant 0.005 wt. %) was 254 mL. For the same substance, the “onset of foam saturation (in words)” value (single surfactant, 1%, FIG. 1) was “taking the longest to reach saturation”.
